Assay results from patent publication US8592374B2, “Neurotrophic peptides” (Research Foundation for Mental Hygiene, Inc., priority 2007, dated 2013).

What was measured:
[1] = test system: neural progenitor cells of the dentate gyrus; assay: Stereological counts of BrdU-IR cells in subregions of the hippocampus, 30-day pellets; format: in vivo, mice
Description: All in vivo studies for characterization of peptides (stereology and behavioral analysis) were performed on 8-10-month-old female retired breeders of C57Bl6 background. The animals were acclimatized for at least 3 weeks to exclude occasional pregnant mice from the studies. Mice were group-housed (3 animals per cage) with a 12:12 light:dark cycle and with free access to food and water. All procedures were conducted in accordance with approved protocols from our institutional Animal Welfare Committee.
(§1) To study neurogenesis, mice received subcutaneous implants of extended release depot pellets containing either CNTF peptides 6a or 6c for 30 days of continuous dosing (Innovative Research of America, Sarasota, Fla.). For control groups, the pellets consisted of the carrier biopolymer only. For implantation, the mice were anesthetized with 2.5% Avertin (0.38 ml for a 25 g animal). Under sterile conditions, the pellets were then subcutaneously implanted along the anterolateral aspect of the right shoulder with a precision trochar (Innovative Research of America). The animals were then transferred to the animal colony after recovery from anesthesia. There were no complications associated with the implantation and treatment. BrdU was given as two daily i.p. injections (100 mg/kg/dose) for five days starting on day 2 of peptide treatment. Neurogenesis was assessed in the dentate gyrus (DG) by counting the number of BrdU-immunoreactive (BrdU-IR), BrdU-DCX-IR and BrdU-NeuN-IR cells in various layers of the DG. Employing principles of unbiased stereology, the optical fractionator method was used to estimate cell counts for the DG.
At the end of treatment, all animals were anesthetized with an overdose of sodium pentobarbital and transcardially perfused with 0.1 M PBS. After perfusion, the brains were removed from the skull, the left hemisphere was immediately frozen for future biochemical analysis and the right hemisphere was fixed in 4% paraformaldehyde in 0.1 M PBS for at least 24 hours at room temperature. Tissues were then stored in 30% sucrose solutions at 4° C. until sectioning. The brains were sectioned sagittaly on a freezing sliding microtome at […] through the entire hippocampus and the sections were stored in glycol anti-freeze solution (Ethylene glycol, glycerol and 0.1 M PBS in 3:3:4 ratio) at −20° C. till further processing.
(§2) Immunohistochemistry was performed as described elsewhere (Kuhn et al., J. Neurosci 17 (15) (1997): 5820-5829). Briefly, every 5th brain section was chosen for quantification of cell number and every 10th section was chosen for staining intensity scanning. Immunohistochemistry was performed on free floating sections. For BrdU immunohistochemistry, epitope retrieval and staining were performed as previously described (Kuhn et al., J. Neurosci 17 (15) (1997): 5820-5829).
Neurogenesis was assessed in the DG by counting the number of BrdU-immunoreactive (BrdU-IR), BrdU-DCX-IR and BrdU-NeuN-IR cells in various layers of the DG. The granule cell layer (GCL) was subdivided into an inner and outer half (iGCL and oGCL). The iGCL consisted of the subgranular zone (SGZ, defined as a 2-3 nuclei thick layer bordering the GCL) and the inner half of the GCL adjacent to the Hilus (Hil); the outer GCL (oGCL) was defined as the half of the GCL adjacent to the Molecular layer (Mol). A cell in the middle of the GCL was considered part of the iGCL and a cell bordering the GCL in the Mol was included in oGCL counts. […] Hil included the superficial polymorphic layer.
All sections were collected using the random uniform sampling scheme. For BrdU-IR cells, counting was performed on every 5th section using 40× oil objective of a Nikon 90i fluorescent microscope equipped with Nikon C1 three laser confocal system and a Nikon DS U1 digital camera. Employing principles of unbiased stereology, the optical fractionator method was used to estimate cell counts for the DG (West et al., Anat Rec 231 (1991): 482-497). […]

[2] = test system: granule cell layer of the dentate gyrus; assay: Stereological counts of DCX-, BrdU-NeuN- and c-Fos-NeuN-IR cells in the granule cell layer; format: in vivo, mice
Description: as §1
(§3) The following primary antibodies were used for immunohistochemistry: anti-BrdU (1:400; Accurate) a rat monoclonal raised against BrdU; anti-DCX (1:200; Santa Cruz Biotechnology Inc.), a goat polyclonal antibody raised against an 18-amino acid peptide representing residues […] of human doublecortin; anti-NeuN (1:500; Chemicon), a mouse monoclonal antibody raised against purified cell nuclei from mouse brain; Anti-c-Fos (Ab-5) (1:500; Calbiochem), a rabbit polyclonal antibody raised against a synthetic peptide corresponding to amino-acids 4-17 of human c-Fos; SMI52 (1:1000; Sternberger Monoclonals), a mouse monoclonal antibody specific for the mature neuronal marker MAP2a,b; anti-synaptophysin, SYN (1:200; Chemicon), a mouse monoclonal antibody raised against vesicular fraction of bovine brain. The following secondary antibodies were used: Alexa 488-conjugated goat anti-mouse IgG antibody and Alexa 594-conjugated goat anti-rabbit or anti-rat IgG antibody (Molecular Probes); biotinylated anti-rat IgG antibody and Cy5-conjugated goat anti-mouse antibody (Jackson ImmunoResearch).
as §2
For BrdU-DCX-, BrdU-NeuN-, and c-Fos-NeuN-IR cells, only GCL (consisting of iGCL and oGLC described above) was counted using 100× oil objective in every 10th section. To ensure objectivity, z-stacks were collected for each double IR cell and analyzed later by generating maximum projection and 3D constructs.

GCL of the dentate gyrus = assay: MAP2 and synaptophysin expression in the GCL (mean pixel intensity), Example 4; format: in vivo, mice; conditions: 30-day treatment
Text: as §3, with “The following secondary antibodies were used: Alexa 488-conjugated goat anti-mouse IgG antibody and Alexa 594-conjugated goat anti-rabbit or anti-rat IgG antibody (Molecular Probes); biotinylated anti-rat IgG antibody and Cy5-conjugated goat anti-mouse antibody (Jackson ImmunoResearch).” left out
For MAP2 and Synaptophysin IR, the entire area of GCL was outlined on every 10th section. Maximum projection images were then generated based on confocal z-stacks, and the antibody staining was quantitated by measuring mean pixel intensity (MPI) with the help of Image-Pro Plus 5.0 software (Media Cybernetics).

normal adult mice = assay: Morris Water Maze task, CNTF 6a / CNTF 6c pellets 30 days; format: in vivo
Description: For behavioral studies, performance on the Morris Water Maze task was assessed in three groups of 10 mice each (placebo, CNTF6a and CNTF6c) which received peptide treatment for 30 days. To avoid daily stress due to injections, all animals undergoing behavioral studies received subcutaneous implants of CNTF 6a, CNTF 6c or placebo pellets as described above.
All animals for behavioral testing were coded such that the experimentator was blind to the assignment of the animals to specific treatment groups. The Morris Water Maze procedure was performed using a 110 cm diameter circular tank. Before training, the mice were handled gently for 2-3 min/day during 3 days to minimize non-specific stress. Acquisition was started with the submerged (invisible) escape platform in the North-East quadrant and each animal was given 60 sec to find the submerged escape platform. […] Five such acquisition trials were given on each day, for four consecutive days. A test for retention, or probe trial, was given 24 hours later. During the probe trial the mouse was allowed to swim in the tank without the escape platform for 60 seconds. This was followed by second and third probe trials 15 and 30 days from the first probe trial. Each probe trial was immediately followed by a “retraining session” consisting of 5 trials/animal to consolidate learned behavior.
The measures of learning were the time and distance swum to reach the escape platform. For retention during the probe trial, the tank was divided into four imaginary quadrants and a small zone where the escape platform had been (virtual platform). The measures of retention were the percent of time spent and the percent of distance swum in each quadrant, and the number of entries into the platform zone.
Mouse behavior in the Morris Water Maze was monitored by a Samsung Digital Camera (SDC 4304) mounted to the ceiling and tracked and timed by a SMART (Pan Lab/San Diego Instruments) version 2.0.14 software.
Since normal adult mice were used as experimental animals, it was crucial not to miss any effect on memory acquisition and learning that the 30-day peptide treatment might have had. Therefore, a partial training paradigm was used to evaluate learning and memory in the Morris Water Maze. Treated mice were trained on the Morris Water Maze for a total of 20 sessions spanning 4 days after which they were subjected to the first probe trial (P1). Two additional probe trials (P2 and P3) were administered 15 and 30 days after P1. […] Learning was evaluated in terms of latency and distance traveled to reach the invisible escape platform. Retention was measured on probe trials by the percent of time and travel distance in the target quadrant, and the number of crossings of the virtual platform.

[3] = 30-day pellets, 50 nmol/peptide/animal/day
[4] = 30-day treated mice (n = 5/group)

## Ac-DGGL-NH2 [CNTF 6c]
[1]; 30-day pellets
  BrdU-IR cells in oGCL, Mol or Hil compared to control: no significant differences
[1]; [3]
  increase of BrdU-IR cell counts in the GCL compared to placebo: 31%
  increase of number of BrdU-IR cells in the iGCL compared to control: 45%
[1]; [4]
  Stereological counts (±SEM) of BrdU-IR cells, GCL: 560 ± 24
  Stereological counts (±SEM) of BrdU-IR cells, Hil: 121 ± 16
  Stereological counts (±SEM) of BrdU-IR cells, Mol: 487 ± 28
  Stereological counts (±SEM) of BrdU-IR cells, iGCL: 486 ± 31
  Stereological counts (±SEM) of BrdU-IR cells, oGCL: 74 ± 10
[2]; [4]
  Stereological counts (±SEM) of cells expressing DCX in the granule cell layer: 656 ± 43
  Stereological counts (±SEM), NeuN-BrdU/BrdU in the granule cell layer: 39 ± 2
[2]; 30-day treated mice (n = 5/group), basal activity
  Stereological counts (±SEM) of c-fos-NeuN cells in the granule cell layer: 247 ± 23
[2]; 30-day treatment
  increase in BrdU-NeuN-IR cells in the GCL compared with placebo: 62%
  increase of DCX-IR cells in the GCL compared to placebo: ~91%
[2]; 30-day treatment, without behavioral stimulation
  increase in number of mature neurons (NeuN-IR) co-expressing c-fos in the GCL: ~47%
GCL of the dentate gyrus
  increase of MAP2 expression in the GCL (mean-pixel intensity): 31%
  increase of synaptophysin expression in the GCL (mean-pixel intensity): 26%
Normal adult mice; 30-day pellets, 20 training sessions over 4 days
  learning in the spatial reference memory task (swim latencies): no effect
Normal adult mice; P1, P2, P3
  percent time spent in the target quadrant across three probe trials: spent the same percent amount of time in the target quadrant
